# Patent publication US7897568B2, “Compositions for treatment of cancer” (priority 2006, dated 2011)
# Where a SMILES comes first, the peptide text is derived from it. Where no end group is shown, it is not given here.
# Columns and labels:
# Assay type in all cases: cell-based
# MCF7-SNCG cells = assay: Microinjection of ANK peptide then nocodazole, mitotic arrest/apoptosis count; conditions: ANK peptide microinjected, 0.5 μM nocodazole for 24 hours; versus uninjected
# Description: (§1) ANK peptide interference with SNCG-BubR1 association in vivo was examined in a stable breast cancer cell line MCF7 expressing SNCG (MCF7-SNCG) and a control SNCG negative cell line (MCF7-Neo). […] Significant numbers of cells survived after treatment with the ANK peptide by microinjection in both cell lines. After microinjection, cells were treated with 0.5 μM nocodazole for 24 hours and the fraction of mitotically arrested cells was counted.
# (§2) MCF7-SNCG and MCF-Neo were grown to 80% confluence, split with trypsin and seeded on a 22 mm glass coverslip treated with human fibronectin ([…]) into 60 mm diameter dishes containing cell maintenance medium for 24 hours and utilized for the experiments. In initial experiments ANK peptide (5, 10 or 100 μM) was microinjected. In all further experiment to date, ANK peptide (10 μM), together with goat IgG (1 mg/ml) and fluoroscein isothiocyanate (FITC, 5 mg/ml; Molecular Probes) into the MCF7-SNCG or MCF7-Neo cells under a 40× magnification of phase contrast microscope (Carl Zeiss Inc.) using a pressure injection system (Femtojet, Eppendorf). To exclude the possibility that microinjection might affect cell cycle and proliferation, MCF7-Neo and MCF7-SNCG were microinjected with goat IgG as a control. Injections were done at a constant flow setup by varying the injection pressure Pc between 40-70 units. The microscope stage was kept at 37° C. using thermal control device (Tempcontrol-37-2 Digital). Approximately 25-30 cells were microinjected in each experiment (n=3). Cells were quickly incubated to revive. […]
# (§3) For the immunofluorescence experiments, cells were fixed in 0.5% buffered paraformaldehyde for 8 minutes at room temperature. […] Cells were scored by identifying cells containing Alexa Fluor 488 excited at 488 nm, and the emission measured at 500-535 nm; DAPI was excited at 345 nm and the emission was measured at 445 nm. […] Mitotic index was determined as described by Gupta et al. (Oncogene 2003 22:7593-7599) and Inaba et al. Breast Cancer Res. Treat. […]
# MCF7-Neo cells = assay: as above; conditions: MCF7-Neo5 cells, ANK peptide microinjected, nocodazole treated; versus uninjected
# Description: as §1, §2, §3
# SNCG = SNCG (Homo sapiens, UniProt O76070); assay: Co-localization of EGFP-ANK with SNCG by confocal microscopy; set-up: expressed in transfected cells; host or cells: MCF7-SNCG (MCF7 stably expressing SNCG); conditions: green fluorescent signals in transfected cells
# Sequence of SNCG (O76070 whole entry, the tested form may be a part): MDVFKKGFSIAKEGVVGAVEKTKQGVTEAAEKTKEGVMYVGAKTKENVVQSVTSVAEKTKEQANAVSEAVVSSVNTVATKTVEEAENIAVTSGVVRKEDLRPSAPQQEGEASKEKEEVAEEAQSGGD
# Text: FIGS. 5A through 5D show co-localization, co-immunoprecipitation (co-IP) and GST pull down experiments, using an enhance green fluorescent protein (EGFP)-ANK fusion protein, which confirm that SNCG associates with the ANK peptide in vivo. FIG. 5A is a western blot depicting detection of EGFP-ANK expression in COS7 cells. Lanes 2 and 3 were samples transfected with different clones, cl-4 and cl-8, respectively, of pEGFP-ANK plasmid. In FIG. 5B, MCF7-SNCG cells were transfected with pEGFP-ANK, fixed on a cover slip, permeabilized and probed with anti-SNCG and anti-GFP antibodies to observe co-localization. Fluorescent cells were visualized using an ×100 objective (oil) on an inverted confocal microscope (Leica). FIGS. 5C and 5D are western blots showing association of SNCG and ANK peptide as evidenced by co-IP of SNCG with EGFP-ANK in MCF7-SNCG and MCF7-neo cells. In these experiments, MCF7-SNCG and MCF7-neo cells were transfected with pEGFP-ANK or pEGFP plasmids. […]
# To further examine the utility of the ANK peptide as a therapeutic tool against SNCG-caused drug resistance, this peptide was expressed in breast cancer cells. ANK peptide nucleotide sequences were cloned into pEGFP-C2 vector (pEGFP-ANK), and ANK peptide was expressed as a fusion protein with its amino-terminal linked to EGFP protein. […]
intracellular localization relative to SNCG (SNCG),Compound,level of mitotically arrested cells (MCF7-SNCG cells),number of cells undergoing mitotic arrest/apoptosis (MCF7-Neo cells)
,CC[C@H](C)[C@H](NC(=O)[C@H](CS)NC(=O)CNC(=O)[C@H](CC(C)C)NC(=O)[C@H](Cc1c[nH]cn1)NC(=O)CNC(=O)[C@H](Cc1c[nH]cn1)NC(=O)[C@H](CCC(N)=O)NC(=O)[C@H](CO)NC(=O)[C@H](C)NC(=O)[C@@H](NC(=O)[C@H](Cc1c[nH]cn1)NC(=O)[C@H](CC(C)C)NC(=O)[C@H](C)NC(=O)[C@H](CO)NC(=O)[C@H](CC(N)=O)NC(=O)CNC(=O)[C@H](CCCCN)NC(C)=O)C(C)C)C(=O)N[C@@H](CCC(N)=O)C(=O)N[C@H](C(=O)N[C@@H](CC(C)C)C(=O)N[C@H](C(=O)N[C@@H](CCCNC(=N)N)C(=O)N[C@@H](Cc1ccc(O)cc1)C(=O)NCC(=O)N[C@@H](C)C(=O)N[C@@H](CC(N)=O)C(=O)N[C@H](C(=O)N[C@H](C(=O)N[C@@H](CCSC)C(=O)N[C@@H](CCC(N)=O)C(=O)N[C@@H](CC(N)=O)C(=O)N[C@@H](Cc1c[nH]cn1)C(=O)NCC(N)=O)[C@@H](C)O)C(C)C)C(C)C)[C@@H](C)O [ANK peptide] (Ac-KGNSALHVASQHGHLGCIQTLVRYGANVTMQNHG-NH2),significantly (p<0.05) increased,not significantly affected
co-localized with SNCG in the cytoplasm,"EGFP-ANK: ANK peptide expressed as a fusion protein with its amino-terminal linked to EGFP protein, approximately 37 kDa ({EGFP}-KGNSALHVASQHGHLGCIQTLVRYGANVTMQNHG)",,
